Several values for one entry are separate records, joined by “and”; a condition that tells them apart may be missing. Equal entries are not always repeated. Toxic doses and inconclusive results are not listed. Rule as the data show it: active = T/C of 150% or more; inactive = T/C below 125%.
Test system: L1210 leukemia ip in BDF1 mice, survival T/C
Test: NCI In Vivo Anticancer Drug Screen. Data for tumor model L1210 Leukemia (intraperitoneal) in B6D2F1 (BDF1) mice
Conditions: endpoint: mean survival time, higher = longer survival
In short: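 Tumor was transplanted into mice, which were then dosed with test compound or vehicle alone. Survival was recorded for each group, and the treated figure was expressed relative to the control figure.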

[1] = dose: 100.0 mg/kg/injection, schedule: Q01DX001 (ip), vehicle: saline with Tween-80
[2] = dose: 200.0 mg/kg/injection, schedule: Q01DX001 (ip), vehicle: saline with Tween-80
[3] = dose: 400.0 mg/kg/injection, schedule: Q01DX001 (ip), vehicle: saline with Tween-80
[4] = dose: 100.0 mg/kg/injection, schedule: Q04DX003 (ip), vehicle: Klucel (hydroxypropylcellulose) (HPC)
[5] = dose: 200.0 mg/kg/injection, schedule: Q04DX003 (ip), vehicle: Klucel (hydroxypropylcellulose) (HPC)
[6] = dose: 400.0 mg/kg/injection, schedule: Q04DX003 (ip), vehicle: Klucel (hydroxypropylcellulose) (HPC)
[7] = dose: 100.0 mg/kg/injection, schedule: Q01DX009 (ip), vehicle: saline
[8] = dose: 200.0 mg/kg/injection, schedule: Q01DX009 (ip), vehicle: saline
[9] = dose: 400.0 mg/kg/injection, schedule: Q01DX009 (ip), vehicle: saline
[10] = dose: 25.0 mg/kg/injection, schedule: Q04DX002 (ip), vehicle: saline with Tween-80
[11] = dose: 100.0 mg/kg/injection, schedule: Q04DX002 (ip), vehicle: Klucel (hydroxypropylcellulose) (HPC)
[12] = dose: 200.0 mg/kg/injection, schedule: Q04DX002 (ip), vehicle: Klucel (hydroxypropylcellulose) (HPC)
[13] = dose: 100.0 mg/kg/injection, schedule: Q04DX003 (ip), vehicle: saline with Tween-80
[14] = dose: 200.0 mg/kg/injection, schedule: Q04DX003 (ip), vehicle: saline with Tween-80
[15] = dose: 400.0 mg/kg/injection, schedule: Q04DX003 (ip), vehicle: saline with Tween-80
[16] = dose: 100.0 mg/kg/injection, schedule: Q01DX001 (ip), vehicle: saline
[17] = dose: 200.0 mg/kg/injection, schedule: Q01DX001 (ip), vehicle: saline
[18] = dose: 400.0 mg/kg/injection, schedule: Q01DX001 (ip), vehicle: saline

Measured: T/C

O=S(=O)(/N=C1C=C/C(=N\S(=O)(=O)c2ccccc2)C(Sc2ccccc2)=C\1)c1ccccc1
inactive: [1] 91 % of control | [2] 94 % of control | [3] 105 % of control

COc1ccc(CNc2ncccn2)cc1
inactive: [4] 102 % of control | [5] 102 % of control | [6] 107 % of control

S=Cc1cccc2c1CCCC2
inactive: [7] 111 % of control | [8] 100 % of control | [9] 97 % of control

O=C(O)CC/C(=N/OCc1cc2c(cc1Cl)OCO2)C(=O)O
inactive: dose: 100.0 mg/kg/injection, schedule: Q04DX003 (ip), vehicle: saline sonified 108 % of control | dose: 200.0 mg/kg/injection, schedule: Q04DX003 (ip), vehicle: saline sonified 93 % of control | dose: 400.0 mg/kg/injection, schedule: Q04DX003 (ip), vehicle: saline sonified 91 % of control

C[CH2][Hg][I]
inactive: [10] 95 % of control | dose: 50.0 mg/kg/injection, schedule: Q04DX002 (ip), vehicle: saline with Tween-80 97 % of control

COc1cc(C(=O)NC(=S)NCc2ccncc2)cc(OC)c1OC
inactive: [11] 96 % of control | [12] 88 % of control

O=c1[nH]cnc2c1ncn2C1OC(CF)C(O)C1O (stereo not given)
inactive: [7] 101 % of control | dose: 100.0 mg/kg/injection, schedule: Q04DX003 (ip), vehicle: other 112 % of control | [8] 101 % of control | dose: 200.0 mg/kg/injection, schedule: Q04DX003 (ip), vehicle: other 103 % of control | [9] 101 % of control | dose: 400.0 mg/kg/injection, schedule: Q04DX003 (ip), vehicle: other 98 % of control

NC(=O)CN1C(=O)C2C3C=CC(C3)C2C1=O (stereo not given)
inactive: [13] 97 % of control | [14] 109 % of control | [15] 97 % of control

NC(=S)N/N=C(\c1ccc(Cl)cc1)C1CC1
inactive: dose: 3.0 mg/kg/injection, schedule: Q01DX Z (ip), vehicle: carboxymethylcellulose (CMC) 96 % of control | dose: 7.0 mg/kg/injection, schedule: Q01DX Z (ip), vehicle: carboxymethylcellulose (CMC) 96 % of control | dose: 7.0 mg/kg/injection, schedule: Q01DX Z (sc), vehicle: carboxymethylcellulose (CMC) 121 % of control | dose: 15.0 mg/kg/injection, schedule: Q01DX Z (ip), vehicle: carboxymethylcellulose (CMC) 97 % of control | dose: 15.0 mg/kg/injection, schedule: Q01DX Z (sc), vehicle: carboxymethylcellulose (CMC) 120 % of control

Cc1ccc(NC(=O)Oc2cccc(C)c2C)cc1NC(=O)Oc1cccc(C)c1C
inactive: dose: 100.0 mg/kg/injection, schedule: Q01DX009 (ip), vehicle: Klucel (hydroxypropylcellulose) (HPC) 96 % of control | dose: 200.0 mg/kg/injection, schedule: Q01DX009 (ip), vehicle: Klucel (hydroxypropylcellulose) (HPC) 94 % of control | dose: 400.0 mg/kg/injection, schedule: Q01DX009 (ip), vehicle: Klucel (hydroxypropylcellulose) (HPC) 93 % of control

CCOCC(O)CO (stereo not given)
inactive: [16] 110 % of control | [17] 98 % of control | [18] 96 % of control

CCCCCCCCCC(CCCCCCCC(=O)O)NC(C)=O (stereo not given)
inactive: dose: 50.0 mg/kg/injection, schedule: Q01DX001 (ip), vehicle: saline 97 % of control | [16] 94 % of control | [17] 94 % of control | [18] 94 % of control

C=C(C)COc1cc(C=NCCCC)c(C)cc1C
inactive: [13] 96 % of control | [14] 102 % of control | [15] 96 % of control

O=C(O)C(O)C(O)C(O)CO.[Zn+2] (stereo not given)
inactive: dose: 6.25 mg/kg/injection, schedule: Q01DX009 (ip), vehicle: saline with Tween-80 95 % of control | dose: 6.25 mg/kg/injection, schedule: Q04DX002 (ip), vehicle: saline with Tween-80 124 % of control | dose: 12.5 mg/kg/injection, schedule: Q01DX009 (ip), vehicle: saline with Tween-80 105 % of control and 100 % of control | dose: 12.5 mg/kg/injection, schedule: Q04DX002 (ip), vehicle: saline with Tween-80 109 % of control | dose: 25.0 mg/kg/injection, schedule: Q01DX009 (ip), vehicle: saline with Tween-80 91 % of control | [10] 95 % of control | dose: 50.0 mg/kg/injection, schedule: Q01DX009 (ip), vehicle: saline with Tween-80 91 % of control

FC(F)(F)c1nc2nc(Cl)c(Cl)nc2n1CCCN1CCOCC1
inactive: dose: 100.0 mg/kg/injection, schedule: Q01DX009 (ip), vehicle: saline with Tween-80 117 % of control | dose: 200.0 mg/kg/injection, schedule: Q01DX009 (ip), vehicle: saline with Tween-80 107 % of control | dose: 400.0 mg/kg/injection, schedule: Q01DX009 (ip), vehicle: saline with Tween-80 103 % of control

CCCCOC(=O)c1ccc(C)s1
inactive: dose: 100.0 mg/kg/injection, schedule: Q01DX001 (ip), vehicle: carboxymethylcellulose (CMC) 95 % of control | dose: 200.0 mg/kg/injection, schedule: Q01DX001 (ip), vehicle: carboxymethylcellulose (CMC) 101 % of control | dose: 400.0 mg/kg/injection, schedule: Q01DX001 (ip), vehicle: carboxymethylcellulose (CMC) 95 % of control

C[N+](C)(C)CCS(=O)(=O)c1ccc(Cl)cc1
inactive: dose: 100.0 mg/kg/injection, schedule: Q04DX002 (ip), vehicle: saline 90 % of control

O=C(O)c1c(Cl)ccc([N+](=O)[O-])c1Cl
inactive: [4] 88 % of control | [5] 95 % of control | [6] 92 % of control

S=C1SC2(CCCCCC2)NC2=C1CCCCC2
inactive: dose: 100.0 mg/kg/injection, schedule: Q04DX002 (ip), vehicle: saline with Tween-80 103 % of control | dose: 200.0 mg/kg/injection, schedule: Q04DX002 (ip), vehicle: saline with Tween-80 89 % of control | dose: 400.0 mg/kg/injection, schedule: Q04DX002 (ip), vehicle: saline with Tween-80 89 % of control

CC(=O)c1c(C)n(C)c2ccccc12
inactive: [1] 103 % of control | [11] 95 % of control | [13] 95 % of control | [2] 101 % of control | [12] 98 % of control | [14] 92 % of control | [3] 103 % of control | dose: 400.0 mg/kg/injection, schedule: Q04DX002 (ip), vehicle: Klucel (hydroxypropylcellulose) (HPC) 109 % of control | [15] 93 % of control

COc1ccc(N(C=O)N=O)cc1
inactive: dose: 75.0 mg/kg/injection, schedule: Q01DX001 (ip), vehicle: other 90 % of control | dose: 150.0 mg/kg/injection, schedule: Q01DX001 (ip), vehicle: other 93 % of control

CCc1nc(Cl)c(Cl)[nH]1
inactive: [1] 107 % of control | [2] 103 % of control

Cc1cc(Cl)nc(Nc2nc3cc(Cl)c(Cl)cc3[nH]2)n1
inactive: dose: 12.5 mg/kg/injection, schedule: Q01DX009 (ip), vehicle: acetone 87 % of control and 92 % of control | dose: 12.5 mg/kg/injection, schedule: Q04DX003 (ip), vehicle: saline 95 % of control and 112 % of control | dose: 25.0 mg/kg/injection, schedule: Q01DX009 (ip), vehicle: acetone 87 % of control | dose: 25.0 mg/kg/injection, schedule: Q04DX003 (ip), vehicle: saline 94 % of control and 95 % of control | dose: 50.0 mg/kg/injection, schedule: Q01DX009 (ip), vehicle: acetone 88 % of control | dose: 50.0 mg/kg/injection, schedule: Q04DX003 (ip), vehicle: saline 94 % of control and 101 % of control | [16] 91 % of control | [17] 93 % of control | [18] 91 % of control

Reference: PubChem BioAssay AID248 (DTP/NCI, 2004)
